Measured values reported in patent US20240352022A1, “GROUP OF IMB-C5 SERIES COMPOUNDS HAVING ANTI-CORONAVIRUS ACTIVITY AND APPLICATION THEREOF” (priority 2021, published 2024).

Legend:
HCoV-229E [1] = assay: anti-HCoV-229E activity in Huh7 cells by cytopathic effect (CPE) assay; assay type: cell-based, Human coronavirus HCoV-229E; conditions: Human coronavirus 229E, Huh-7, HCoV-229E 100 TCID50 in Huh7 cells, about 48 h
HCoV-229E [2] = assay: anti-HCoV-229E activity in Huh7.5 cells by cytopathic effect (CPE) assay; assay type: cell-based, Human coronavirus HCoV-229E; conditions: Human coronavirus 229E, HCoV-229E 100 TCID50 in Huh7.5 cells, about 48 h
in vitro [3] = conditions: human
in vitro [4] = conditions: human; remark: listed apart in the source

COCCNc1nc2c(c(=O)n(C)c(=O)n2C)n1Cc1cccc(OC)c1 [IMB-ZH-10, 7-(3-methoxybenzyl)-8-((2-methoxyethyl)amino)-1,3-dimethyl-3,7-dihydro-1H-purine-2,6-dione]
EC50 (HCoV-229E [1]): 8.6 µM
EC50 (HCoV-229E [2]): 19 µM
CC50 (in vitro [3]): > 134 µM
CC50 (in vitro [4]): > 134 µM

COc1cccc(Cn2c(NCCO)nc3c2c(=O)n(CCNC(=O)OC(C)(C)C)c(=O)n3C)c1 [IMB-3-57, tert-butyl(2-(8-((2-hydroxyethyl)amino)-7-(3-methoxybenzyl)-3-methyl-2,6-dioxo-2,3,6,7-tetrahydro-1H-purin-1-yl)ethyl)carbamate]
EC50 (HCoV-229E [1]): 66.7 µM
CC50 (in vitro [3]): > 200 µM

Cn1c(=O)c2c(nc(NCCO)n2Cc2ccc(OC(F)(F)F)cc2)n(C)c1=O [IMB-2-3, 8-((2-hydroxyethyl)amino)-1,3-dimethyl-7-(4-(trifluoromethoxy)benzyl)-3,7-dihydro-1H-purine-2,6-dione]
EC50 (HCoV-229E [1]): 11.4 µM
EC50 (HCoV-229E [2]): 4.79 µM
CC50 (in vitro [3]): > 242 µM
CC50 (in vitro [4]): > 242 µM

COc1ccc(Cn2c(NCCO)nc3c2c(=O)n(C)c(=O)n3C)cc1 [IMB-88]
EC50 (HCoV-229E [1]): 16.5 µM
EC50 (HCoV-229E [2]): 23.5 µM
CC50 (in vitro [3]): > 278 µM
CC50 (in vitro [4]): > 278 µM

Cn1c(=O)c2c(nc(NCCO)n2Cc2cccc(F)c2)n(C)c1=O [IMB-80, 7-(3-fluorobenzyl)-8-((2-hydroxyethyl)amino)-1,3-dimethyl-3,7-dihydro-1H-purine-2,6-dione]
EC50 (HCoV-229E [1]): 10.7 µM
EC50 (HCoV-229E [2]): 14 µM
CC50 (in vitro [3]): > 288 µM
CC50 (in vitro [4]): > 288 µM

NC(=O)c1ncn([C@@H]2O[C@H](CO)[C@@H](O)[C@H]2O)n1 [RBV, Ribavirin, reference compound]
EC50 (HCoV-229E [1]): 26.2 µM
EC50 (HCoV-229E [2]): 16.7 µM

C#CCCn1c(=O)c2c(nc(NCCO)n2Cc2cccc(OC)c2)n(C)c1=O [IMB-3-45, 1-(but-3-yn-1-yl)-8-((2-hydroxyethyl)amino)-7-(3-methoxybenzyl)-3-methyl-3,7-dihydro-1H-purine-2,6-dione]
EC50 (HCoV-229E [1]): 66.7 µM
CC50 (in vitro [3]): > 200 µM

COc1cccc(Cn2c(N3CCN(c4ccc(F)cc4)CC3)nc3c2c(=O)n(C)c(=O)n3C)c1 [IMB-2-31, 8-(4-(4-fluorophenyl)piperazin-1-yl)-7-(3-methoxybenzyl)-1,3-dimethyl-3,7-dihydro-1H-purine-2,6-dione]
EC50 (HCoV-229E [1]): 38.5 µM
CC50 (in vitro [3]): > 200 µM

C#CCn1c(=O)c2c(nc(NCCO)n2Cc2cccc(OC)c2)n(C)c1=O [IMB-3-72, 8-((2-hydroxyethyl)amino)-7-(3-methoxybenzyl)-3-methyl-1-(prop-2-yn-1-yl)-3,7-dihydro-1H-purine-2,6-dione]
EC50 (HCoV-229E [1]): 115 µM
CC50 (in vitro [3]): > 200 µM

COc1cccc(Cn2c(NCCO)nc3c2c(=O)n(Cc2ccc(F)cc2)c(=O)n3C)c1 [IMB-3-13, 1-(4-fluorobenzyl)-8-((2-hydroxyethyl)amino)-7-(3-methoxybenzyl)-3-methyl-3,7-dihydro-1H-purine-2,6-dione]
EC50 (HCoV-229E [1]): 17.2 µM
CC50 (in vitro [3]): 46.2 µM

CC(C)C(=O)OC[C@H]1O[C@@H](n2ccc(NO)nc2=O)[C@H](O)[C@@H]1O [Molnupiravir, reference compound]
EC50 (HCoV-229E [1]): 1.92 µM
EC50 (HCoV-229E [2]): 4.28 µM
CC50 (in vitro [3]): > 200 µM
CC50 (in vitro [4]): > 200 µM

Cn1c(=O)c2c(nc(NCCO)n2Cc2ccc(C(C)(C)C)cc2)n(C)c1=O [IMB-84, 7-(4-(tert-butyl)benzyl)-8-((2-hydroxyethyl)amino)-1,3-dimethyl-3,7-dihydro-1H-purine-2,6-dione]
EC50 (HCoV-229E [1]): 15.4 µM
EC50 (HCoV-229E [2]): 12.3 µM
CC50 (in vitro [3]): > 259 µM
CC50 (in vitro [4]): > 259 µM

COc1ccc(Cn2c(=O)c3c(nc(NCCO)n3Cc3cccc(OC)c3)n(C)c2=O)cc1 [IMB-3-15, 8-((2-hydroxyethyl)amino)-7-(3-methoxybenzyl)-1-(4-methoxybenzyl)-3-methyl-3,7-dihydro-1H-purine-2,6-dione]
EC50 (HCoV-229E [1]): 17.2 µM
CC50 (in vitro [3]): > 200 µM

COc1cccc(Cn2c(NC[C@@H](C)O)nc3c2c(=O)n(C)c(=O)n3C)c1 [IMB-ZHC-6, (R)-8-((2-hydroxypropyl)amino)-7-(3-methoxybenzyl)-1,3-dimethyl-3,7-dihydro-1H-purine-2,6-dione]
EC50 (HCoV-229E [1]): 12.6 µM
EC50 (HCoV-229E [2]): 58.8 µM
CC50 (in vitro [3]): > 134 µM
CC50 (in vitro [4]): > 134 µM

COc1cccc(Cn2c(NCCO)nc3c2c(=O)n(Cc2ccncc2)c(=O)n3C)c1 [IMB-3-16, 8-((2-hydroxyethyl)amino)-7-(3-methoxybenzyl)-3-methyl-1-(pyridin-4-ylmethyl)-3,7-dihydro-1H-purine-2,6-dione]
EC50 (HCoV-229E [1]): 22.2 µM
CC50 (in vitro [3]): 115 µM

COc1cccc(Cn2c(NCCO)nc3c2c(=O)n(C)c(=O)n3Cc2ccccc2)c1 [IMB-3-81, benzyl-8-((2-hydroxyethyl)amino)-7-(3-methoxybenzyl)-1-methyl-3,7-dihydro-1H-purine-2,6-dione]
EC50 (HCoV-229E [1]): 96.2 µM
CC50 (in vitro [3]): > 200 µM

CCOC(=O)c1cccc(Cn2c(NCCO)nc3c2c(=O)n(C)c(=O)n3C)c1 [IMB-4-6, ethyl3-((8-((2-hydroxyethyl)amino)-1,3-dimethyl-2,6-dioxo-1,2,3,6-tetrahydro-7H-purin-7-yl)methyl)benzoate]
EC50 (HCoV-229E [1]): 2.47 µM
CC50 (in vitro [3]): 200 µM

COC(=O)c1ccc2c(ccn2-c2nc3c(c(=O)n(C)c(=O)n3C)n2Cc2cccc(OC)c2)c1 [IMB-2-32, Methyl-1-(7-(3-methoxybenzyl)-1,3-dimethyl-2,6-dioxo-2,3,6,7-tetrahydro-1H-purin-8-yl)-1H-indole-5-carboxylate]
EC50 (HCoV-229E [1]): 5.75 µM
CC50 (in vitro [3]): 51.7 µM

Cn1c(=O)c2c(nc(NCCO)n2Cc2cccc(Br)c2)n(C)c1=O [IMB-81, 7-(3-bromobenzyl)-8-((2-hydroxyethyl)amino)-1,3-dimethyl-3,7-dihydro-1H-purine-2,6-dione]
EC50 (HCoV-229E [1]): 2.47 µM
CC50 (in vitro [3]): 124 µM

COc1cccc(Cn2c(N[C@@H](C)CO)nc3c2c(=O)n(C)c(=O)n3C)c1 [IMB-ZH-2, (S)-8-((1-hydroxypropan-2-yl)amino)-7-(3-methoxybenzyl)-1,3-dimethyl-3,7-dihydro-1H-purine-2,6-dione]
EC50 (HCoV-229E [1]): 44.7 µM
EC50 (HCoV-229E [2]): 82.9 µM
CC50 (in vitro [3]): > 134 µM
CC50 (in vitro [4]): > 134 µM

C=CCn1c(=O)c2c(nc(NCCO)n2Cc2cccc(OC)c2)n(C)c1=O [IMB-3-71, allyl-8-((2-hydroxyethyl)amino)-7-(3-methoxybenzyl)-3-methyl-3,7-dihydro-1H-purine-2,6-dione]
EC50 (HCoV-229E [1]): 38.5 µM
CC50 (in vitro [3]): 115 µM

Cn1c(=O)c2c(nc(NCCO)n2Cc2ccsc2)n(C)c1=O [IMB-4-12, 8-((2-hydroxyethyl)amino)-1,3-dimethyl-7-(thiophen-3-ylmethyl)-3,7-dihydro-1H-purine-2,6-dione]
EC50 (HCoV-229E [1]): 3.99 µM
CC50 (in vitro [3]): > 200 µM

COc1cccc(Cn2c(-n3ccnc3)nc3c2c(=O)n(C)c(=O)n3C)c1 [IMB-2-26, 8-(1H-imidazol-1-yl)-7-(3-methoxybenzyl)-1,3-dimethyl-3,7-dihydro-1H-purine-2,6-dione]
EC50 (HCoV-229E [1]): 38.5 µM
CC50 (in vitro [3]): > 200 µM

Cn1c(=O)c2c(nc(NCCO)n2Cc2ccc(F)cc2)n(C)c1=O [IMB-2-2, 7-(4-fluorobenzyl)-8-((2-hydroxyethyl)amino)-1,3-dimethyl-3,7-dihydro-1H-purine-2,6-dione]
EC50 (HCoV-229E [1]): 3.15 µM
CC50 (in vitro [3]): > 200 µM

CCn1c(=O)c2c(nc(Br)n2Cc2cccc(OC)c2)n(C)c1=O [IMB-3-30, 8-bromo-1-ethyl-7-(3-methoxybenzyl)-3-methyl-3,7-dihydro-1H-purine-2,6-dione]
EC50 (HCoV-229E [1]): 4.28 µM
CC50 (in vitro [3]): 155 µM

Cn1c(=O)c2c(nc(NCCO)n2Cc2ccccc2Br)n(C)c1=O [IMB-2-6, 7-(2-bromobenzyl)-8-((2-hydroxyethyl)amino)-1,3-dimethyl-3,7-dihydro-1H-purine-2,6-dione]
EC50 (HCoV-229E [1]): 12.8 µM
CC50 (in vitro [3]): > 200 µM

Cn1c(=O)c2c(nc(NCCO)n2Cc2cccc([N+](=O)[O-])c2)n(C)c1=O [IMB-79]
EC50 (HCoV-229E [1]): 17.2 µM
CC50 (in vitro [3]): > 200 µM

COc1cccc(Cn2c(NCCO)nc3c2c(=O)n(CCCNC(=O)OC(C)(C)C)c(=O)n3C)c1 [IMB-3-58, tert-butyl(3-(8-((2-hydroxyethyl)amino)-7-(3-methoxybenzyl)-3-methyl-2,6-dioxo-2,3,6,7-tetrahydro-1H-purin-1-yl)propyl)carbamate]
EC50 (HCoV-229E [1]): 66.7 µM
CC50 (in vitro [3]): > 200 µM

Cn1c(=O)c2c(nc(NCCO)n2Cc2cccc(Cl)c2F)n(C)c1=O [IMB-ZHB-4x, 7-(3-chloro-2-fluorobenzyl)-8-((2-hydroxyethyl)amino)-1,3-dimethyl-3,7-dihydro-1H-purine-2,6-dione]
EC50 (HCoV-229E [1]): 3.78 µM
EC50 (HCoV-229E [2]): 8.42 µM
CC50 (in vitro [3]): 91 µM
CC50 (in vitro [4]): 91 µM

CCn1c(=O)c2c(nc(NCCO)n2Cc2cccc(OC)c2)n(C)c1=O [IMB-3-46, ethyl-8-((2-hydroxyethyl)amino)-7-(3-methoxybenzyl)-3-methyl-3,7-dihydro-1H-purine-2,6-dione]
EC50 (HCoV-229E [1]): 155 µM
CC50 (in vitro [3]): > 200 µM

COc1cccc(Cn2c(NCCO)nc3c2c(=O)n(CC2CCOCC2)c(=O)n3C)c1 [IMB-3-6, 8-((2-hydroxyethyl)amino)-7-(3-methoxybenzyl)-3-methyl-1-((tetrahydro-2H-pyran-4-yl)methyl)-3,7-dihydro-1H-purine-2,6-dione]
CC50 (in vitro [3]): > 200 µM

Cn1c(=O)c2c(nc(NCCO)n2Cc2ccc(F)cc2F)n(C)c1=O [IMB-83, 7-(2,4-difluorobenzyl)-8-((2-hydroxyethyl)amino)-1,3-dimethyl-3,7-dihydro-1H-purine-2,6-dione]
EC50 (HCoV-229E [1]): 3.15 µM
CC50 (in vitro [3]): > 200 µM

COc1cccc(CCn2c(NCCO)nc3c2c(=O)n(C)c(=O)n3C)c1 [IMB-4-13, 8-((2-hydroxyethyl)amino)-7-(3-methoxyphenethyl)-1,3-dimethyl-3,7-dihydro-1H-purine-2,6-dione]
EC50 (HCoV-229E [1]): 15.4 µM
CC50 (in vitro [3]): > 200 µM

CCCn1c(=O)c2c(nc(NCCO)n2Cc2cccc(OC)c2)n(C)c1=O [IMB-3-47, 8-((2-hydroxyethyl)amino)-7-(3-methoxybenzyl)-3-methyl-1-propyl-3,7-dihydro-1H-purine-2,6-dione]
EC50 (HCoV-229E [1]): 85.9 µM
CC50 (in vitro [3]): > 200 µM
